The data set deals with Vero C1008. The data set is described as follows: Cytotoxicity against African green monkey Vero E6 cells assessed as inhibition of cell growth measured after 48 hrs by MTT assay. It is filed as toxicity, cell-based. The settings on record: chlorocebus sabaeus, vero c1008, 48 h, dose 0.05-50 µM.

Starred links: 1 amine or outer side, 2 acyl side, 3 side chain; linkers in the order of their positions; H or OH if unused. Positions of bridges follow the written chain, without caps; N, C: chain ends. Non-standard residues stand in square brackets, D forms with d. Residues, ends and D or L forms follow the SMILES beside them. X1 = C[C@@](CC=[*:3])(N[*:1])C(=O)[*:2]

In the case of `CSCC[C@@H]1NC(=O)[C@H](CC(N)=O)NC(=O)[C@@H]2CC(=O)NCCCC[C@H](NC(=O)[C@H](Cc3c[nH]c4ccccc34)NC(=O)[C@@H](NC(=O)[C@H](CCCCN)NC(=O)[C@H](Cc3ccc(O)cc3)NC(=O)[C@H](CC(C)C)NC(=O)[C@H](Cc3c[nH]c4ccccc34)NC(=O)[C@H](CCC(=O)O)NC(=O)[C@@H](NC(=O)CNC(C)=O)[C@@H](C)O)C(C)C)C(=O)N[C@@H](C)C(=O)N[C@@H](Cc3ccccc3)C(=O)N[C@@](C)(C/C=C/C[C@@](C)(C(=O)O)NC1=O)C(=O)N2` (Ac-GTEWLYKVWKAF[X1]DNM[X1]-OH; lactam 10-14; staple (E) 13-17), the Activity entry was “Dose-Dependent Effect”.

The values above are taken from ChEMBL document CHEMBL5329177, “De novo design of a stapled peptide targeting SARS-CoV-2 spike protein receptor-binding domain” (RSC Med Chem, 2023).
